Source: patent publication US20110039721A1, “METHOD FOR PREDICTION ABOUT CARCINOGENICITY OF SUBSTANCE IN RODENT” (Chemicals Evaluation and Research Institute, priority 2007, published 2011)
Like-named read-outs stand apart in the source and are kept apart here.

How the values were obtained:
liver = details: cited from earlier work
[1] = cited from earlier work
[2] = test system: mRNA expressed from the genes (A) to (D) in rat liver; assay: Behavior of genes (mRNA expression level, oligo-DNA microarray) in rat liver after 28-day oral administration; assay type: in vivo
Procedure, shortened: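 Liver mRNA levels were compared with matched vehicle groups, with a shift of at least 1.5-fold up or down deemed significant unless its direction disagreed with other carcinogens. Test substances were dosed orally by gavage daily for 28 days to 5-week-old male F344 rats, four per group.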

rodent = details: cited from earlier work
[3] = gene group (A), Unigene No. Rn.167075
[4] = gene group (C), Unigene No. Rn.120914

Cc1ccc(N)cc1Cl [TS080, 3-Chloro-p-toluidine]
Liver carcinogenicity (liver; classification of the substance (Cr+/Cr−)): Cr−
Mutagenicity by Ames test ([1]; classification of the substance (M+/M−)): M−
Behavior of gene caused by administration of chemical substance, Gene No. 4846 ([2]; gene group (A), Unigene No. Rn.144554): +
Behavior of gene caused by administration of chemical substance, Gene No. 2026 [2, 3]: +
Behavior of gene caused by administration of chemical substance, Gene No. 4218 [2, 3]: +
Behavior of gene caused by administration of chemical substance, Gene No. 6182 ([2]; gene group (A), Unigene No. Rn.5834): +
Behavior of gene caused by administration of chemical substance, Gene No. 5600 ([2]; gene group (A), Unigene No. Rn.9836): +
Behavior of gene caused by administration of chemical substance, Gene No. 1494 ([2]; gene group (B), Unigene No. Rn.1430): +
Behavior of gene caused by administration of chemical substance, Gene No. 2045 ([2]; gene group (B), Unigene No. Rn.19329): −
Behavior of gene caused by administration of chemical substance, Gene No. 2203 ([2]; gene group (B), Unigene No. Rn.21240): +
Behavior of gene caused by administration of chemical substance, Gene No. 533 ([2]; gene group (C), Unigene No. Rn.106184): +
Behavior of gene caused by administration of chemical substance, Gene No. 725 ([2]; gene group (C), Unigene No. Rn.108075): +
Behavior of gene caused by administration of chemical substance, Gene No. 1163 ([2]; gene group (C), Unigene No. Rn.11766): −
Behavior of gene caused by administration of chemical substance, Gene No. 4973 ([2]; gene group (C), Unigene No. Rn.118529): +
Behavior of gene caused by administration of chemical substance, Gene No. 4095 ([2]; gene group (C), Unigene No. Rn.119024): +
Behavior of gene caused by administration of chemical substance, Gene No. 1334 [2, 4]: −
Behavior of gene caused by administration of chemical substance, Gene No. 6620 [2, 4]: −
Behavior of gene caused by administration of chemical substance, Gene No. 6303 ([2]; gene group (C), Unigene No. Rn.123063): −
Behavior of gene caused by administration of chemical substance, Gene No. 5878 ([2]; gene group (C), Unigene No. Rn.143213): −
Behavior of gene caused by administration of chemical substance, Gene No. 1131 ([2]; gene group (C), Unigene No. Rn.144946): −
Behavior of gene caused by administration of chemical substance, Gene No. 1562 ([2]; gene group (C), Unigene No. Rn.14744): −
Behavior of gene caused by administration of chemical substance, Gene No. 1741 ([2]; gene group (C), Unigene No. Rn.1647): −
Behavior of gene caused by administration of chemical substance, Gene No. 893 ([2]; gene group (C), Unigene No. Rn.164817): +
Behavior of gene caused by administration of chemical substance, Gene No. 6026 ([2]; gene group (C), Unigene No. Rn.167685): −
Behavior of gene caused by administration of chemical substance, Gene No. 154 ([2]; gene group (C), Unigene No. Rn.185941): +
Behavior of gene caused by administration of chemical substance, Gene No. 1993 ([2]; gene group (C), Unigene No. Rn.18728): −
Behavior of gene caused by administration of chemical substance, Gene No. 813 ([2]; gene group (C), Unigene No. Rn.201760): +
Behavior of gene caused by administration of chemical substance, Gene No. 2494 ([2]; gene group (C), Unigene No. Rn.23969): −
Behavior of gene caused by administration of chemical substance, Gene No. 2546 ([2]; gene group (C), Unigene No. Rn.24561): +
Behavior of gene caused by administration of chemical substance, Gene No. 3776 ([2]; gene group (C), Unigene No. Rn.43232): −
Behavior of gene caused by administration of chemical substance, Gene No. 3929 ([2]; gene group (C), Unigene No. Rn.4620): −
Behavior of gene caused by administration of chemical substance, Gene No. 1119 ([2]; gene group (C), Unigene No. Rn.9757): −
Behavior of gene caused by administration of chemical substance, Gene No. 6742 ([2]; gene group (C), Unigene No. Rn.9779): −
Behavior of gene caused by administration of chemical substance, Gene No. 5634 ([2]; gene group (C), Unigene No. Rn.9862): −
Behavior of gene caused by administration of chemical substance, Gene No. 5726 ([2]; gene group (D), Unigene No. Rn.9939): +
Carcinogenicity (rodent; classification of the substance (C+/C−)): C−

O=CCCCC=O [TS081, Glutaraldehyde]
Liver carcinogenicity (liver; in vivo): Cr−
Mutagenicity by Ames test ([1]; classification M+/M−): M+
Behavior of gene caused by administration of chemical substance ([2]; Gene No. 154, Rn.185941, group (C)): −
Behavior of gene caused by administration of chemical substance ([2]; Gene No. 533, Rn.106184, group (C)): +
Behavior of gene caused by administration of chemical substance ([2]; Gene No. 725, Rn.108075, group (C)): −
Behavior of gene caused by administration of chemical substance ([2]; Gene No. 813, Rn.201760, group (C)): −
Behavior of gene caused by administration of chemical substance ([2]; Gene No. 893, Rn.164817, group (C)): −
Behavior of gene caused by administration of chemical substance ([2]; Gene No. 1119, Rn.9757, group (C)): −
Behavior of gene caused by administration of chemical substance ([2]; Gene No. 1131, Rn.144946, group (C)): −
Behavior of gene caused by administration of chemical substance ([2]; Gene No. 1163, Rn.11766, group (C)): −
Behavior of gene caused by administration of chemical substance ([2]; Gene No. 1334, Rn.120914, group (C)): −
Behavior of gene caused by administration of chemical substance ([2]; Gene No. 1494, Rn.1430, group (B)): −
Behavior of gene caused by administration of chemical substance ([2]; Gene No. 1562, Rn.14744, group (C)): −
Behavior of gene caused by administration of chemical substance ([2]; Gene No. 1741, Rn.1647, group (C)): −
Behavior of gene caused by administration of chemical substance ([2]; Gene No. 1993, Rn.18728, group (C)): −
Behavior of gene caused by administration of chemical substance ([2]; Gene No. 2026, Rn.167075, group (A)): −
Behavior of gene caused by administration of chemical substance ([2]; Gene No. 2045, Rn.19329, group (B)): −
Behavior of gene caused by administration of chemical substance ([2]; Gene No. 2203, Rn.21240, group (B)): −
Behavior of gene caused by administration of chemical substance ([2]; Gene No. 2494, Rn.23969, group (C)): −
Behavior of gene caused by administration of chemical substance ([2]; Gene No. 2546, Rn.24561, group (C)): −
Behavior of gene caused by administration of chemical substance ([2]; Gene No. 3776, Rn.43232, group (C)): −
Behavior of gene caused by administration of chemical substance ([2]; Gene No. 3929, Rn.4620, group (C)): −
Behavior of gene caused by administration of chemical substance ([2]; Gene No. 4095, Rn.119024, group (C)): −
Behavior of gene caused by administration of chemical substance ([2]; Gene No. 4218, Rn.167075, group (A)): −
Behavior of gene caused by administration of chemical substance ([2]; Gene No. 4846, Rn.144554, group (A)): −
Behavior of gene caused by administration of chemical substance ([2]; Gene No. 4973, Rn.118529, group (C)): +
Behavior of gene caused by administration of chemical substance ([2]; Gene No. 5600, Rn.9836, group (A)): −
Behavior of gene caused by administration of chemical substance ([2]; Gene No. 5634, Rn.9862, group (C)): −
Behavior of gene caused by administration of chemical substance ([2]; Gene No. 5726, Rn.9939, group (D)): −
Behavior of gene caused by administration of chemical substance ([2]; Gene No. 5878, Rn.143213, group (C)): −
Behavior of gene caused by administration of chemical substance ([2]; Gene No. 6026, Rn.167685, group (C)): −
Behavior of gene caused by administration of chemical substance ([2]; Gene No. 6182, Rn.5834, group (A)): −
Behavior of gene caused by administration of chemical substance ([2]; Gene No. 6303, Rn.123063, group (C)): −
Behavior of gene caused by administration of chemical substance ([2]; Gene No. 6620, Rn.120914, group (C)): −
Behavior of gene caused by administration of chemical substance ([2]; Gene No. 6742, Rn.9779, group (C)): +
Carcinogenicity (rodent; classification C+/C−): C−
